Measured values taken from ChEMBL document CHEMBL1138223, “Synthesis of low-hemolytic antimicrobial dehydropeptides based on gramicidin s” (2006).
Values after ≈ are worked out from the molar mass of the structure shown. Active and inactive are the calls of the source. No cut-off for these calls is given here. Numbered stars: 1 amine (or outer) side, 2 acyl side, 3 side chain; on linkers, the order of the positions; unused ones are H or OH. Square brackets hold non-standard residues; d marks the D form. Peptide text beside a SMILES is read from it. X1 = O=C(/C(=C/c1cccnc1)N[*:1])[*:2]; X2 = O=C(/C(=C/c1ccccc1)N[*:1])[*:2]; Orn = NCCC[C@H](N)C(=O)O

What was measured:
Staphylococcus aureus = assay: Antimicrobial activity against Staphylococcus aureus 209P by liquid broth method; type: functional
Erythrocyte = assay: Induction of human erythrocyte hemolysis; type: functional, cell-based
Escherichia coli = assay: Antimicrobial activity against Escherichia coli K12 W3110 by liquid broth method; type: functional

CC(C)C[C@@H]1NC(=O)[C@H](CCCN)NC(=O)[C@H](C(C)C)NC(=O)[C@@H]2CCCN2C(=O)[C@@H](Cc2cccnc2)NC(=O)[C@H](CC(C)C)NC(=O)[C@H](CCCN)NC(=O)[C@H](C(C)C)NC(=O)[C@@H]2CCCN2C(=O)[C@@H](Cc2cccnc2)NC1=O
MIC (Staphylococcus aureus): 64 µg/mL (≈ 56 µM) | Activity (Erythrocyte): inactive | MIC (Escherichia coli): 64 µg/mL (≈ 56 µM)

CC(C)C[C@@H]1NC(=O)[C@H](CCCN)NC(=O)[C@H](C(C)C)NC(=O)[C@@H]2CCCN2C(=O)/C(=C/c2cccnc2)NC(=O)[C@H](CC(C)C)NC(=O)[C@H](CCCN)NC(=O)[C@H](C(C)C)NC(=O)[C@@H]2CCCN2C(=O)/C(=C/c2cccnc2)NC1=O (cyclo(L[X1]PV[Orn]L[X1]PV[Orn]))
MIC (Staphylococcus aureus): 8 µg/mL (≈ 7.02 µM) | MIC (Escherichia coli): 32 µg/mL (≈ 28.1 µM)

CC(C)C[C@@H]1NC(=O)[C@H](CCCN)NC(=O)[C@H](C(C)C)NC(=O)[C@@H]2CCCN2C(=O)/C(=C/c2ccccc2)NC(=O)[C@H](CC(C)C)NC(=O)[C@H](CCCN)NC(=O)[C@H](C(C)C)NC(=O)[C@@H]2CCCN2C(=O)/C(=C/c2cccnc2)NC1=O (cyclo(L[X2]PV[Orn]L[X1]PV[Orn]))
MIC (Staphylococcus aureus): 4 µg/mL (≈ 3.51 µM) | MIC (Escherichia coli): 32 µg/mL (≈ 28.1 µM)

CC(C)C[C@@H]1NC(=O)[C@H](CCCN)NC(=O)[C@H](C(C)C)NC(=O)[C@@H]2CCCN2C(=O)/C(=C/c2ccccc2)NC(=O)[C@H](CC(C)C)NC(=O)[C@H](CCCN)NC(=O)[C@H](C(C)C)NC(=O)[C@@H]2CCCN2C(=O)/C(=C/c2ccccc2)NC1=O (cyclo(L[X2]PV[Orn]L[X2]PV[Orn]))
MIC (Staphylococcus aureus): 4 µg/mL (≈ 3.52 µM) | MIC (Escherichia coli): 32 µg/mL (≈ 28.1 µM)

CC(C)C[C@@H]1NC(=O)[C@H](CCCN)NC(=O)[C@H](C(C)C)NC(=O)[C@@H]2CCCN2C(=O)[C@@H](Cc2ccc(O)cc2)NC(=O)[C@H](CC(C)C)NC(=O)[C@H](CCCN)NC(=O)[C@H](C(C)C)NC(=O)[C@@H]2CCCN2C(=O)[C@@H](Cc2ccc(O)cc2)NC1=O (cyclo(L[dY]PV[Orn]L[dY]PV[Orn]))
MIC (Staphylococcus aureus): 4 µg/mL (≈ 3.41 µM) | MIC (Escherichia coli): 32 µg/mL (≈ 27.3 µM)

CC(C)C[C@@H]1NC(=O)[C@H](CCCN)NC(=O)[C@H](C(C)C)NC(=O)[C@@H]2CCCN2C(=O)[C@@H](Cc2ccccc2)NC(=O)[C@H](CC(C)C)NC(=O)[C@H](CCCN)NC(=O)[C@H](C(C)C)NC(=O)[C@@H]2CCCN2C(=O)[C@@H](Cc2ccccc2)NC1=O [GRAMICIDIN S] (cyclo(L[dF]PV[Orn]L[dF]PV[Orn]))
MIC (Staphylococcus aureus): 4 µg/mL (≈ 3.5 µM) | MIC (Escherichia coli): 16 µg/mL (≈ 14 µM)
